According to ChEMBL document CHEMBL1250452, “Bradykinin B1 receptor antagonists as potential therapeutic agents for pain” (J Med Chem, 2010):
Blank lines part the entries; values can stand above or below the compound they belong to.

How the values were obtained:
[1] = Half life in Sprague-Dawley rat at 2 mg/kg, iv; format: ADME, organism-based; set-up: dose 2 mg/kg, route intravenous; details: in vivo
B1 bradykinin receptor [2] = target: T1, B1 bradykinin receptor (Oryctolagus cuniculus, UniProt P48748); test: Inhibition of rabbit bradykinin B1 receptor
T1 sequence (P48748 whole entry): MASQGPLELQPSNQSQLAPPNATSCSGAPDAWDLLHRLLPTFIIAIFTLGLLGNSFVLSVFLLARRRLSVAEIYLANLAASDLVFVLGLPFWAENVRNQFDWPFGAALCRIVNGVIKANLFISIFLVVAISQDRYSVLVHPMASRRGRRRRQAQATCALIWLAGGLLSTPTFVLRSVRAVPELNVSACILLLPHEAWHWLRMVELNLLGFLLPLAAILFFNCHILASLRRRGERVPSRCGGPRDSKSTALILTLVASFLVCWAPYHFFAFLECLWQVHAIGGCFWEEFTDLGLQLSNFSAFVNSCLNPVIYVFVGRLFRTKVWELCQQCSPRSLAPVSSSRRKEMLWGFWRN

B1 bradykinin receptor [3] = target: T2, B1 bradykinin receptor (Rattus norvegicus, UniProt P97583); test: Inhibition of rat bradykinin B1 receptor
T2 sequence (P97583 whole entry): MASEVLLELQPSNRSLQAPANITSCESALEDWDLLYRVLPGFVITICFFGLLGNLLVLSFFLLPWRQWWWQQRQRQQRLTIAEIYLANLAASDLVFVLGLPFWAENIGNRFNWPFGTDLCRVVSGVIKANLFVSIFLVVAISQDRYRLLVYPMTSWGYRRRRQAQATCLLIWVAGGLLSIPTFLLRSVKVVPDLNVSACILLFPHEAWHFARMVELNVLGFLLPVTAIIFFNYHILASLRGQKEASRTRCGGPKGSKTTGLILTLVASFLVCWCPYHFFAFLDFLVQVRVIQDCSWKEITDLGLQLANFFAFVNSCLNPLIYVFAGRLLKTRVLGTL

B1 bradykinin receptor [4] = target: T3, B1 bradykinin receptor (Canis lupus familiaris, UniProt Q9BDQ5); test: Antagonist activity at dog bradykinin B1 receptor; format: functional
T3 sequence (Q9BDQ5 whole entry): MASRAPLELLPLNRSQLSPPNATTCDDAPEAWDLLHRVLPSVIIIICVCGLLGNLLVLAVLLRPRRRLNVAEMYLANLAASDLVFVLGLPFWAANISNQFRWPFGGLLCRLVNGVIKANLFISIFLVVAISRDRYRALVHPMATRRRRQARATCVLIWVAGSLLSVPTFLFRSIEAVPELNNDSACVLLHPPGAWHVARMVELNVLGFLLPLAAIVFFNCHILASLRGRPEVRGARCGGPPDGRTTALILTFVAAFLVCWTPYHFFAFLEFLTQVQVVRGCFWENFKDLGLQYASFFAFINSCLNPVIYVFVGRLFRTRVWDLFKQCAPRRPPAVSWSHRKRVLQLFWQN

B1 bradykinin receptor [5] = target: T4, B1 bradykinin receptor (Macaca mulatta, UniProt Q8HZP2); test: Binding affinity to monkey bradykinin B1 receptor
T4 sequence (Q8HZP2 whole entry): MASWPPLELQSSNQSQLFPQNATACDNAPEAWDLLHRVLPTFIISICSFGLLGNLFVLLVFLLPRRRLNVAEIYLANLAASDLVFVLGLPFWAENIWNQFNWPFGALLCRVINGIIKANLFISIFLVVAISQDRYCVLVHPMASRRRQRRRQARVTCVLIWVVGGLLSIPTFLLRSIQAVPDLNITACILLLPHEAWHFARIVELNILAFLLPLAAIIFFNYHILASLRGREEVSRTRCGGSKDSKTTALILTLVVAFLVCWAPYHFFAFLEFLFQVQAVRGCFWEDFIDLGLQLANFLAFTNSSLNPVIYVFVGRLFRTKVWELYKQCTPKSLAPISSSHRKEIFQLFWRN

[6] = Half life in Sprague-Dawley rat at 0.7 mg/kg, iv; format: ADME, organism-based; set-up: dose 0.7 mg/kg, route intravenous; details: in vivo
[7] = Oral bioavailability in Sprague-Dawley rat at 7 mg/kg; format: ADME, organism-based; details: in vivo
Rattus norvegicus = test: Antiinflammatory activity in rat assessed as reversal of carrageenan-induced hyperalgesia at 3 mg/kg, ip; format: functional; details: route intraperitoneal
B1 bradykinin receptor [8] = target: T5, B1 bradykinin receptor (Homo sapiens, UniProt P46663); test: Antagonist activity at human bradykinin B1 receptor in human MR5 cells assessed as [3H]inositol phosphate accumulation; format: functional, cell-based
T5 sequence (P46663 whole entry): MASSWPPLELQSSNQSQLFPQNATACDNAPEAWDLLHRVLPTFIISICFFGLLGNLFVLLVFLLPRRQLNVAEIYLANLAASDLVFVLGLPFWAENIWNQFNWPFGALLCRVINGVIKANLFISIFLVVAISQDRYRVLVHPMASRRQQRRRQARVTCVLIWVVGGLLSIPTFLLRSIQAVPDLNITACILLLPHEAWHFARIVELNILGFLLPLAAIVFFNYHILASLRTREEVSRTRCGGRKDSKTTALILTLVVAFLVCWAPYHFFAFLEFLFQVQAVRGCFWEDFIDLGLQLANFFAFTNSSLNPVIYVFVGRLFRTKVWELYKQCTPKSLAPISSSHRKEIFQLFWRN

Structure (SMILES): O=C(C[C@@H]1C(=O)Nc2ccccc2N1S(=O)(=O)c1ccc(Cl)c(Cl)c1)NCCc1ccc(C2=NCCN2)cc1
IC50 (B1 bradykinin receptor [2]): 0.26 nM
IC50 (B1 bradykinin receptor [3]): 163 nM
IC50 (B1 bradykinin receptor [4]): 16.3 nM

Structure (SMILES): CN1CCN(C(=O)C2CCN(S(=O)(=O)c3ccc(NCC(c4ccccc4)c4ccccc4)c(C(=O)N4CCOCC4)c3)CC2)CC1
Ki (B1 bradykinin receptor [5]): 7.7 nM
half-life [6]: 2.7 h
bioavailability [7]: 42%

Structure (SMILES): CCCN1C(=O)[C@H](NC(=O)Nc2ccc(N3CCN(c4ccncc4)CC3)cc2)N=C(CCc2ccccc2)c2ccccc21
Activity (Rattus norvegicus): 89%
half-life [1]: 2.7 h

Structure (SMILES): O=C(Nc1[nH]nc(C(=O)NCCC2CCN(c3ccncc3)CC2)c1Br)c1ccccc1Cl
IC50 (B1 bradykinin receptor [8]): 3.5 nM

Structure (SMILES): O=C(NCCCN1CCCCC1)Nc1ccc(S(=O)(=O)Nc2ccccc2C(=O)c2ccccc2)cc1
half-life [1]: 14 h

Results, then the compound that gave them:

half-life [1]: 9.7 h
Structure (SMILES): O=C(Nc1ccc(S(=O)(=O)Nc2ccccc2C(=O)c2ccccc2)cc1)OCC1CCCO1 (configuration not stated)

half-life [1]: 0.3 h
Structure (SMILES): CC(=O)Nc1ccc(S(=O)(=O)Nc2ccccc2C(=O)c2ccccc2)cc1
